# Source: the NIST ThermoML archive (doi:10.1021/je800727f)
# ± gives the expanded uncertainty stated by the source.
# Conditions: for viscosity / mass density: 101.33 kPa, Liquid; for viscosity: dissipative quartz crystal microbalance from KSV (QCMZ500)
compound,measurement,setting,value
CCCCCCCC[n+]1ccn(C)c1.F[B-](F)(F)F [1-methyl-3-octylimidazolium tetrafluoroborate],viscosity,293.15 K,413 ± 71 mPa·s
same,mass density,298.15 K,1100.5 ± 3.3 kg/m3
same,viscosity,298.15 K,325 ± 57 mPa·s
same,mass density,308.15 K,1093.7 ± 3.2 kg/m3
same,viscosity,308.15 K,205 ± 35 mPa·s
same,mass density,318.15 K,1087.1 ± 3.2 kg/m3
same,viscosity,318.15 K,129 ± 12 mPa·s
same,mass density,328.15 K,1080.5 ± 3.2 kg/m3
same,viscosity,328.15 K,86 ± 7 mPa·s
same,surface tension liquid-gas,570.95 K,32.7 ± 1.4 mN/m
same,surface tension liquid-gas,586.35 K,32.4 ± 1.4 mN/m
same,surface tension liquid-gas,606.62 K,31.3 ± 1.3 mN/m
same,surface tension liquid-gas,625.26 K,30.2 ± 1.3 mN/m
same,surface tension liquid-gas,646.29 K,28.1 ± 1.2 mN/m
same,surface tension liquid-gas,665.98 K,27.7 ± 1.2 mN/m
same,surface tension liquid-gas,685.41 K,27.2 ± 1.2 mN/m
same,surface tension liquid-gas,704.75 K,25.3 ± 1.1 mN/m
same,surface tension liquid-gas,724.78 K,24.5 ± 1.1 mN/m
same,surface tension liquid-gas,743.71 K,23.7 ± 1.1 mN/m
C[n+]1ccn(CCO)c1.F[B-](F)(F)F [1-(2-hydroxyethyl)-3-methylimidazolium tetrafluoroborate],viscosity,293.15 K,1554 ± 270 mPa·s
same,mass density,298.15 K,1308 ± 4.1 kg/m3
same,viscosity,298.15 K,974 ± 170 mPa·s
same,mass density,303.15 K,1304.7 ± 4 kg/m3
same,mass density,308.15 K,1301.4 ± 4 kg/m3
same,viscosity,308.15 K,477 ± 83 mPa·s
same,mass density,313.15 K,1296.1 ± 4 kg/m3
same,mass density,318.15 K,1294.7 ± 4 kg/m3
same,viscosity,318.15 K,257 ± 45 mPa·s
same,mass density,323.15 K,1291.5 ± 4 kg/m3
same,mass density,328.15 K,1288.3 ± 4 kg/m3
same,viscosity,328.15 K,156 ± 14 mPa·s
same,surface tension liquid-gas,572 K,64.7 ± 2.4 mN/m
same,surface tension liquid-gas,577.78 K,64.6 ± 2.4 mN/m
same,surface tension liquid-gas,587.55 K,64 ± 2.4 mN/m
same,surface tension liquid-gas,597.81 K,63.5 ± 2.4 mN/m
same,surface tension liquid-gas,607.58 K,62.7 ± 2.3 mN/m
same,surface tension liquid-gas,626.51 K,61.7 ± 2.3 mN/m
same,surface tension liquid-gas,645.35 K,59.9 ± 2.2 mN/m
same,surface tension liquid-gas,665.48 K,59.1 ± 2.2 mN/m
same,surface tension liquid-gas,684.42 K,57.5 ± 2.2 mN/m
same,surface tension liquid-gas,703.95 K,56.4 ± 2.1 mN/m
same,surface tension liquid-gas,725.28 K,55.4 ± 2.1 mN/m
same,surface tension liquid-gas,743.71 K,53.6 ± 2 mN/m
